# According to patent publication US10759768B2, “Prophylactic or therapeutic agent for autism spectrum disorder” (priority 2016, dated 2020):
# Entries after “also recorded” stand apart in the source; their conditions may differ.
# System: rat valproic acid-exposed autism model
# Assay: Sociability test (3 chamber) in rat embryonic valproic acid-exposed autism model
# Assay type: in vivo
# Settings: compound A 0.2 or 1 mg/kg orally once a day for 14 days from 3 weeks of age; male Sprague-Dawley offspring exposed to VPA 500 mg/kg i.p.; test at 5 weeks of age; FIG. 1
# Protocol: Rat embryonic valproic acid-exposed autism model was used for the test. Sodium valproate (VPA) 500 mg/kg (mpk) was intraperitoneally administered to Sprague-Dawley pregnant rats on the 12.5th day in the embryonic stage. The offspring was weaned on the 21st day after birth, and only the male rat was used for the experiment. Compound A (0.2 or 1 mg/kg) was orally administered once a day at 18 o'clock for 14 days from 3 weeks of age after weaning and a behavioral test was conducted at 5 weeks of age. As unknown rat (Stranger rat), a purchased male rat of the same strain and the same week of age was used with no contact with the rat to be tested (test rat) until the day of the test.
# In the experiment, a black plastic 3 chamber experimental apparatus (90×60×34 cm, each chamber 30×60×34 cm) was used. […]
# On the day of the test, the rats to be tested and unknown rats were acclimated to the test environment for 1 hour or more and then the test was started. […] The sniffing to each cylinder (action of sniffing an object or an animal) was visually measured for 10 min. A sniffing index, which is an indicator of interest to other animal, was calculated by the following formula based on the sniffing time to each cylinder for 10 min. […]
compound,measurement,value
"CC(=O)NCC[C@@H]1CCc2ccc3nc(C)oc3c21 [compound A, (S)—N-[2-(2-methyl-7,8-dihydro-6H-indeno[5,4-d][1,3]oxazol-8-yl)ethyl]acetamide]","effect on social disorder / social performance (Sniffing index, Sniffing time to object)",significant (# P≤0.025) improvement effect on social performance; also recorded: showed effectiveness on the social disorder
